The target in one assay is T1, FLT3-ITD (Homo sapiens, UniProt P36888).
T1 construct: FLT3-ITD; Invitrogen #PV6190
T1 sequence (P36888 1-993): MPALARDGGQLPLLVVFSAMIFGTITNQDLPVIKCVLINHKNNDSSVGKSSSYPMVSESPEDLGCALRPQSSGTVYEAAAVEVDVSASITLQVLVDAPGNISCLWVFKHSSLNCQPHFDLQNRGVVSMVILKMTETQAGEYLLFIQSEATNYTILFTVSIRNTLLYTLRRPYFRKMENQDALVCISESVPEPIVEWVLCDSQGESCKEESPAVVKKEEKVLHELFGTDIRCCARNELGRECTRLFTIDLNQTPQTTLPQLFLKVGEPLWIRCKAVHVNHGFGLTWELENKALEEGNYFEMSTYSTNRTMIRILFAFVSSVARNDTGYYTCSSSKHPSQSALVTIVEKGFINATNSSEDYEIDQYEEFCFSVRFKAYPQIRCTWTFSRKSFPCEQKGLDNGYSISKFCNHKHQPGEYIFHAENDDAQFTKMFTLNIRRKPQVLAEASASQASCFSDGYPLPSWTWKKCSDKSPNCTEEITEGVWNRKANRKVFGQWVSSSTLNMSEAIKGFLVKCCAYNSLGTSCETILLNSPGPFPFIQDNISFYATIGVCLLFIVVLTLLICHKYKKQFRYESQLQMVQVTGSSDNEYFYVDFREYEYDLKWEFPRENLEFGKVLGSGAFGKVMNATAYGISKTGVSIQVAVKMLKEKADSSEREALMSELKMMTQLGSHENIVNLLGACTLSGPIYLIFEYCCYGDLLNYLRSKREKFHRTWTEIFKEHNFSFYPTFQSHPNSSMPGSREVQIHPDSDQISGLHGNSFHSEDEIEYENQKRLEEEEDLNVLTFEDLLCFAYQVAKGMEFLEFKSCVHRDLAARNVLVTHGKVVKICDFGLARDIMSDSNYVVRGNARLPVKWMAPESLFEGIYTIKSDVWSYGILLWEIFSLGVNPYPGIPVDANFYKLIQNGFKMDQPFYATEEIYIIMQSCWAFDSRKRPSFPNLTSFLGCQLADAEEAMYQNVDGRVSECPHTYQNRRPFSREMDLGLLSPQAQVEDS
In words: FLT3-ITD biochemical kinase assay (AlphaScreen). In short, it runs like this: (§1)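 IC50 values reflect loss of AlphaScreen proximity signal (excitation 680 nm, emission 580 nm) from tyrosine phosphorylation of a biotinylated poly(Glu4-Tyr) substrate at 30 nM. ATP was 10 μM for the D835Y mutant and 100 μM for ITD. Detection used PY20 acceptor beads.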
(Bead proximity is the source of the signal in Alpha formats.)

Another assay addresses c-Kit (Homo sapiens, UniProt P10721). The assay can be described thus: c-Kit biochemical assay (per US 2007/0032519). The procedure: The following Table 2 provides data indicating FLT3 ITD, FLT3 D835Y, and KIT biochemical activity, and BaF3 FLT3 ITD/F69L cellular inhibitory activity for exemplary compounds described in this disclosure. In the table below, activity is provided as follows: +++=0.0001<IC50<1 μM; ++=1 μM<IC50<10 μM, +=10 μM<IC50<200 μM. Assays for the biochemical activity of c-Kit and FMS were conducted according to those assays described in US Patent Application Publication number US 2007/0032519, the disclosure of which is hereby incorporated by reference in its entirety.

The next assay deals with T2, FLT3-D835Y (Homo sapiens, UniProt P36888, D835Y).
T2 construct: purchased Invitrogen PV3967
T2 sequence (P36888 27-993 D835Y): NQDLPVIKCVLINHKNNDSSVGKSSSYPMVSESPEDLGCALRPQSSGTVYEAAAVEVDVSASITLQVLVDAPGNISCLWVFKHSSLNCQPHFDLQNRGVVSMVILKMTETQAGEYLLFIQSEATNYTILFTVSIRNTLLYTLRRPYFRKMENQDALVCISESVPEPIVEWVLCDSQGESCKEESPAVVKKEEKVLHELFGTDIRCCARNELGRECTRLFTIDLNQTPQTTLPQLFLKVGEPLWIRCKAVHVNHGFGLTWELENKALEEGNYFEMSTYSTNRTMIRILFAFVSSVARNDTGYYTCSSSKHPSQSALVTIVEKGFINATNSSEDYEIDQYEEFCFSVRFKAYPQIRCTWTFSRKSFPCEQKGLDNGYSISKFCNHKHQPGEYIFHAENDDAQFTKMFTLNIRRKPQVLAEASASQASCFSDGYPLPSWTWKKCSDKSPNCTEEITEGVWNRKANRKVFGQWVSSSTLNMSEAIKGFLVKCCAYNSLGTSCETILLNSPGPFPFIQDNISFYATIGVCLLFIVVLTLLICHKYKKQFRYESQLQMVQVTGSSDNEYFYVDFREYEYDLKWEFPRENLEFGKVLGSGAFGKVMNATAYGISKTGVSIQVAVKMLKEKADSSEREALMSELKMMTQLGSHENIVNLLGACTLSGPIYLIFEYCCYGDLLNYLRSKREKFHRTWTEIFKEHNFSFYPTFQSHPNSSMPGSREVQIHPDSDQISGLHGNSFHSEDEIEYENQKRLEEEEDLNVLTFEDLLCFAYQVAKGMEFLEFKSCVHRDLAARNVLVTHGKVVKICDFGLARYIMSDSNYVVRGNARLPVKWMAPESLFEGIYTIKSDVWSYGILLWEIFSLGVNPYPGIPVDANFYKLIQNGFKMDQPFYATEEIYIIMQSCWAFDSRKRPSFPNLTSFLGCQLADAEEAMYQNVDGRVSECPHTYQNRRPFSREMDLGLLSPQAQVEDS
In words: FLT3-D835Y biochemical kinase assay (AlphaScreen). In short, it runs like this: as §1

Chain of c-Kit (P10721 26-976): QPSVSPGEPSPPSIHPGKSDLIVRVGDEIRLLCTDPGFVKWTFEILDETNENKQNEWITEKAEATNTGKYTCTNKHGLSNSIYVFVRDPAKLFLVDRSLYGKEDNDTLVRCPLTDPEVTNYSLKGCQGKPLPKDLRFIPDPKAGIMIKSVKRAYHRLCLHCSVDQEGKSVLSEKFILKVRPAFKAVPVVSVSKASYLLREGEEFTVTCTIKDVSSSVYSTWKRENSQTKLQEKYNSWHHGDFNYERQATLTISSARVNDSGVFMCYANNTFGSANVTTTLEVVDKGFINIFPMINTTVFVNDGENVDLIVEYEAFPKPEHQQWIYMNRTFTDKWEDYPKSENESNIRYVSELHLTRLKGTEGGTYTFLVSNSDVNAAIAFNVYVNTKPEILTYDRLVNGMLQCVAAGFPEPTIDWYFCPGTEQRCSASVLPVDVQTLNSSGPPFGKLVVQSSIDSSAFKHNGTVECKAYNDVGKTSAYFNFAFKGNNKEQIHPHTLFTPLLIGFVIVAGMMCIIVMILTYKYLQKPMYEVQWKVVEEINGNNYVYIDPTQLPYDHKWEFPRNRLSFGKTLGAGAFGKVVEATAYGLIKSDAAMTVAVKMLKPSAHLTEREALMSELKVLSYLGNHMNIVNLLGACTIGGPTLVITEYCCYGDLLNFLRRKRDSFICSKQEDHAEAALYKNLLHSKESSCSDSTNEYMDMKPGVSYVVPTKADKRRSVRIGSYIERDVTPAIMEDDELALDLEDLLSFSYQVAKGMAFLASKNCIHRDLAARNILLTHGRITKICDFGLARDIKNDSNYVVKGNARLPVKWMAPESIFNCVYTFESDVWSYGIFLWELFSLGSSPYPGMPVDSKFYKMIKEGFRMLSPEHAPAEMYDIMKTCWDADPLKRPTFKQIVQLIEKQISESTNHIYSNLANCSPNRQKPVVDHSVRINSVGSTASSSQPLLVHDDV

For orientation: IC50 means the concentration that inhibits the measured activity by half. The low end stands for greater potency in that assay, the high end for weaker potency in that assay. In the case of `CN1CCOc2ccc(-c3c[nH]c4ncc(-c5cccc(NS(C)(=O)=O)c5)nc34)cc21` [P-065, N-[3-[7-(4-methyl-2,3-dihydro-1,4-benzoxazin-6-yl)-5H-pyrrolo[2,3-b]pyrazin-2-yl]phenyl]methanesulfonamide], the IC50 was 0.0001 to 1 µM on FLT3-ITD, 10 to 200 µM at c-Kit and 0.0001 to 1 µM against FLT3-D835Y.
As for `c1nc2cc(-c3c[nH]c4ncc(-c5cnc(C6CC6)nc5)cc34)ccc2[nH]1` [P-027, 3-(1H-benzimidazol-5-yl)-5-(2-cyclopropylpyrimidin-5-yl)-1H-pyrrolo[2,3-b]pyridine], the IC50 at FLT3-ITD, at c-Kit and against FLT3-D835Y was 0.0001 to 1 µM throughout.
Regarding `COc1cc(-c2cnc3[nH]cc(-c4ccc5ncn(C)c5c4)c3c2)ccc1C#N` [P-117, 2-methoxy-4-[3-(3-methylbenzimidazol-5-yl)-1H-pyrrolo[2,3-b]pyridin-5-yl]benzonitrile], the IC50 against FLT3-ITD was 0.0001 to 1 µM; on c-Kit, 1 to 10 µM; at FLT3-D835Y it was 0.0001 to 1 µM.
On to `CC(C)N1CCOc2ccc(-c3c[nH]c4ncc(-c5cccc(NS(C)(=O)=O)c5)nc34)cc21` [P-086, N-[3-[7-(4-isopropyl-2,3-dihydro-1,4-benzoxazin-6-yl)-5H-pyrrolo[2,3-b]pyrazin-2-yl]phenyl]methanesulfonamide], for which the IC50 against FLT3-ITD was in the range of 0.0001 to 1 µM; against c-Kit, 10 to 200 µM; on FLT3-D835Y, 0.0001 to 1 µM.
As for `CS(=O)(=O)Nc1cccc(-c2cnc3[nH]cc(-c4ccc5c(c4)OC(F)(F)O5)c3n2)c1` [P-064, N-[3-[7-(2,2-difluoro-1,3-benzodioxol-5-yl)-5H-pyrrolo[2,3-b]pyrazin-2-yl]phenyl]methanesulfonamide], the figures for the IC50 at FLT3-ITD, at c-Kit and on FLT3-D835Y were 1 to 10 µM, 10 to 200 µM and 1 to 10 µM, respectively.
In the case of `COc1cnc2[nH]cc(-c3ccc4[nH]cnc4c3)c2c1` [P-002, 3-(1H-benzimidazol-5-yl)-5-methoxy-1H-pyrrolo[2,3-b]pyridine], the results for the IC50 at FLT3-ITD, against c-Kit and on FLT3-D835Y were 0.0001 to 1 µM, 1 to 10 µM and 0.0001 to 1 µM, respectively.
For the molecule `COc1cnc2[nH]cc(-c3ccc4[nH]c(C)nc4c3)c2c1` [P-015, 5-methoxy-3-(2-methyl-1H-benzimidazol-5-yl)-1H-pyrrolo[2,3-b]pyridine], the results for the IC50 against FLT3-ITD, against c-Kit and against FLT3-D835Y were 0.0001 to 1 µM, 10 to 200 µM and 1 to 10 µM, respectively.
In the case of `Cn1cnc2ccc(-c3c[nH]c4ncc(-c5ccc(NS(C)(=O)=O)cc5)nc34)cc21` [P-063, N-[4-[7-(3-methylbenzimidazol-5-yl)-5H-pyrrolo[2,3-b]pyrazin-2-yl]phenyl]methanesulfonamide], the values for the IC50 on FLT3-ITD, against c-Kit and against FLT3-D835Y were 0.0001 to 1 µM, 1 to 10 µM and 0.0001 to 1 µM, respectively.
For the molecule `Cn1cnc2ccc(-c3c[nH]c4ncc(-c5cccc(S(N)(=O)=O)c5)cc34)cc21` [P-044, 3-[3-(3-methylbenzimidazol-5-yl)-1H-pyrrolo[2,3-b]pyridin-5-yl]benzenesulfonamide], the IC50 is 0.0001 to 1 µM on FLT3-ITD, 10 to 200 µM on c-Kit and 0.0001 to 1 µM on FLT3-D835Y.
`c1nc2cc(-c3c[nH]c4ncc(OCC5CC5)cc34)ccc2[nH]1` [P-007, 3-(1H-benzimidazol-5-yl)-5-(cyclopropylmethoxy)-1H-pyrrolo[2,3-b]pyridine]: the IC50 against FLT3-ITD fell in the range of 0.0001 to 1 µM; against c-Kit, 1 to 10 µM; against FLT3-D835Y, 1 to 10 µM.
Take `COc1cnc2[nH]cc(-c3ccc4ncsc4c3)c2c1` [P-029, 6-(5-methoxy-1H-pyrrolo[2,3-b]pyridin-3-yl)-1,3-benzothiazole]: the IC50 against FLT3-ITD fell in the range of 0.0001 to 1 µM; at c-Kit, 1 to 10 µM; at FLT3-D835Y, 0.0001 to 1 µM.
As for `CC(C)(O)C#Cc1cnc2[nH]cc(-c3ccc4ncn(C(C)(C)C)c4c3)c2n1` [P-377, 4-[7-(3-tert-butylbenzimidazol-5-yl)-5H-pyrrolo[2,3-b]pyrazin-2-yl]-2-methyl-but-3-yn-2-ol], the figures for the IC50 at FLT3-ITD, on c-Kit and against FLT3-D835Y were 0.0001 to 1 µM, 1 to 10 µM and 0.0001 to 1 µM, respectively.
Take `Cn1cnc2ccc(-c3c[nH]c4ncc(-c5cccc(N6CCCS6(=O)=O)c5)cc34)cc21` [P-093, 2-[3-[3-(3-methylbenzimidazol-5-yl)-1H-pyrrolo[2,3-b]pyridin-5-yl]phenyl]-1,2-thiazolidine 1,1-dioxide]: the concentration for half-maximal inhibition (IC50) was in the range of 0.0001 to 1 µM against FLT3-ITD, 1 to 10 µM against c-Kit and 0.0001 to 1 µM on FLT3-D835Y.
Regarding `c1cnc2[nH]cc(-c3ccc4[nH]nnc4c3)c2c1` [P-005, 5-(1H-pyrrolo[2,3-b]pyridin-3-yl)-1H-benzotriazole], the values for the IC50 against FLT3-ITD, at c-Kit and on FLT3-D835Y were 1 to 10 µM, 10 to 200 µM and 10 to 200 µM, respectively.
Consider `O=S(=O)(C1CC1)N1CCC=C(c2cnc3[nH]cc(-c4ccc5[nH]cnc5c4)c3c2)C1` [P-032, 3-(1H-benzimidazol-5-yl)-5-(1-cyclopropylsulfonyl-3,6-dihydro-2H-pyridin-5-yl)-1H-pyrrolo[2,3-b]pyridine], for which the IC50 at FLT3-ITD is 0.0001 to 1 µM; against c-Kit it was 10 to 200 µM; at FLT3-D835Y it was 1 to 10 µM.
Turning to `Cc1cnc2[nH]cc(-c3ccc4nc[nH]c4c3)c2c1` [P-021, 3-(3H-benzimidazol-5-yl)-5-methyl-1H-pyrrolo[2,3-b]pyridine], the results for the IC50 against FLT3-ITD, on c-Kit and against FLT3-D835Y were 0.0001 to 1 µM, 1 to 10 µM and 0.0001 to 1 µM, respectively.
With `c1cnc2[nH]cc(-c3ccc4[nH]cnc4c3)c2c1` [P-004, 3-(1H-benzimidazol-5-yl)-1H-pyrrolo[2,3-b]pyridine], the IC50 lay in the range of 1 to 10 µM against FLT3-ITD, 1 to 10 µM against c-Kit and 0.0001 to 1 µM on FLT3-D835Y.
Regarding `O=C(C1CC1)N1CC=C(c2cnc3[nH]cc(-c4ccc5[nH]cnc5c4)c3c2)CC1` [P-017, [4-[3-(1H-benzimidazol-5-yl)-1H-pyrrolo[2,3-b]pyridin-5-yl]-3,6-dihydro-2H-pyridin-1-yl]-cyclopropyl-methanone], the IC50 fell in the range of 0.0001 to 1 µM at FLT3-ITD, 1 to 10 µM against c-Kit and 0.0001 to 1 µM on FLT3-D835Y.
As for `CC(C)(C)n1cnc2ccc(-c3c[nH]c4ncc(C5=CCN(C(=O)C6CC6)C5)nc34)cc21` [P-127, [3-[7-(3-tert-butylbenzimidazol-5-yl)-5H-pyrrolo[2,3-b]pyrazin-2-yl]-2,5-dihydropyrrol-1-yl]-cyclopropyl-methanone], the IC50 at FLT3-ITD lay in the range of 0.0001 to 1 µM; at c-Kit, 1 to 10 µM; at FLT3-D835Y it was 0.0001 to 1 µM.

These data come from patent US10160755B2 (Plexxikon Inc., priority 2015, dated 2018).
